According to patent US20260285850A1, “SUBSTITUTED OXAZOLIDINONES AND IMIDAZOLINONES AS HERBICIDES” (FMC CORPORATION, priority 2023, published 2026):

Legend:
Type in all cases: in vivo
[1] = tested on: barnyardgrass (Echinochloa crus-galli); assay: Test A preemergence soil spray, visual injury rating 0-100; details: 1000 g ai/ha, 10 days, 0 = no effect, 100 = complete control
Method in brief: (§1)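 Directed preemergence spray onto seeded soil or postemergence spray onto 2-10 cm plants (loam plus sand); compound carried in surfactant-containing non-phytotoxic solvent. Injury rated by eye after 10 d greenhouse growth; 0 = no effect, 100 = complete control.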

[2] = tested on: blackgrass (Alopecurus myosuroides); assay: as above; details: 1000 g ai/ha, 10 days, 0 = no effect, 100 = complete control
Method in brief: as §1

[3] = tested on: foxtail, giant (giant foxtail, Setaria faberi); assay: as above; details: 1000 g ai/ha, 10 days, 0 = no effect, 100 = complete control
Method in brief: as §1

kochia (Bassia scoparia) [4] = assay: as above; details: 1000 g ai/ha, 10 days, 0 = no effect, 100 = complete control
Method in brief: as §1

[5] = tested on: palmer (palmer amaranth, palmer pigweed, Amaranthus palmeri); assay: as above; details: 1000 g ai/ha, 10 days, 0 = no effect, 100 = complete control
Method in brief: as §1

[6] = tested on: ragweed (common ragweed, Ambrosia artemisiifolia); assay: as above; details: 1000 g ai/ha, 10 days, 0 = no effect, 100 = complete control
Method in brief: as §1

[7] = tested on: ryegrass, Italian (italian ryegrass, Lolium multiflorum); assay: as above; details: 1000 g ai/ha, 10 days, 0 = no effect, 100 = complete control
Method in brief: as §1

[8] = tested on: barnyardgrass (Echinochloa crus-galli); assay: Test A postemergence application, visual injury rating 0-100; details: Postemergence, 1000 g ai/ha, 0 to 100 scale, 10 days
Method in brief: as §1

[9] = tested on: blackgrass (Alopecurus myosuroides); assay: as above; details: Postemergence, 1000 g ai/ha, 0 to 100 scale, 10 days
Method in brief: as §1

[10] = tested on: foxtail, giant (giant foxtail, Setaria faberi); assay: as above; details: 1000 g ai/ha, 0 to 100 scale, 10 days
Method in brief: as §1

[11] = tested on: galium (catchweed bedstraw, Galium aparine); assay: as above; details: Postemergence, 1000 g ai/ha, 0 to 100 scale, 10 days
Method in brief: as §1

[12] = tested on: horseweed (Erigeron canadensis); assay: as above; details: Postemergence, 1000 g ai/ha, 0 to 100 scale, 10 days
Method in brief: as §1

kochia (Bassia scoparia) [13] = assay: as above; details: Postemergence, 1000 g ai/ha, 0 to 100 scale, 10 days
Method in brief: as §1

[14] = tested on: palmer (palmer amaranth, palmer pigweed, Amaranthus palmeri); assay: as above; details: Postemergence, 1000 g ai/ha, 0 to 100 scale, 10 days
Method in brief: as §1

[15] = tested on: ragweed (common ragweed, Ambrosia artemisiifolia); assay: as above; details: Postemergence, 1000 g ai/ha, 0 to 100 scale, 10 days
Method in brief: as §1

[16] = tested on: ryegrass, Italian (italian ryegrass, Lolium multiflorum); assay: as above; details: Postemergence, 1000 g ai/ha, 0 to 100 scale, 10 days
Method in brief: as §1

[17] = tested on: barnyardgrass (Echinochloa crusgalli); assay: Test B flooded paddy test, visual plant response rating 0-100; details: 250 g ai/ha, Flood, applied to paddy water, evaluated after 13 days
Method in brief: (§2)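 Visual scores versus untreated controls were recorded 13 days after treatment of greenhouse-held plants. At the 2-leaf stage, pots were flooded 3 cm above the soil surface and compounds added straight to the water.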

[18] = tested on: ducksalad (Heteranthera limosa); assay: as above; details: 250 g ai/ha, Flood, applied to paddy water, evaluated after 13 days
Method in brief: as §2

rice (Oryza sativa) = assay: as above; details: 250 g ai/ha, Flood, applied to paddy water, evaluated after 13 days
Method in brief: as §2

[19] = tested on: sedge, umbrella (small-flower umbrella sedge, Cyperus difformis); assay: as above; details: 250 g ai/ha, Flood, applied to paddy water, evaluated after 13 days
Method in brief: as §2

| SMILES | Barnyardgrass plant response rating (0 to 100 scale) [1] | Blackgrass plant response rating (0 to 100 scale) [2] | Foxtail, Giant plant response rating (0 to 100 scale) [3] | Kochia plant response rating (0 to 100 scale) (kochia (Bassia scoparia) [4]) | Amaranth, Palmer / Pigweed, Palmer plant response rating (0 to 100 scale) [5] | Ragweed plant response rating (0 to 100 scale) [6] | Ryegrass, Italian plant response rating (0 to 100 scale) [7] | Barnyardgrass plant response rating [8] | Blackgrass plant response rating [9] | Foxtail, Giant plant response rating [10] | Galium plant response rating [11] | Horseweed plant response rating [12] | Kochia plant response rating (kochia (Bassia scoparia) [13]) | Amaranth, Palmer plant response rating [14] | Ragweed plant response rating [15] | Ryegrass, Italian plant response rating [16] | Plant response rating, Barnyardgrass (0 to 100 scale, 0 is no effect and 100 is complete control) [17] | Plant response rating, Ducksalad (0 to 100 scale, 0 is no effect and 100 is complete control) [18] | Plant response rating, Rice (0 to 100 scale, 0 is no effect and 100 is complete control) (rice (Oryza sativa)) | Plant response rating, Sedge, Umbrella (0 to 100 scale, 0 is no effect and 100 is complete control) [19] |
| --- | --- | --- | --- | --- | --- | --- | --- | --- | --- | --- | --- | --- | --- | --- | --- | --- | --- | --- | --- | --- |
| CCCS(=O)(=O)NC(=O)C1C=CC(NC(=O)C2(C)CN(c3cc(F)cc(F)c3)C(=O)O2)C1 (stereo not shown) [Compound 50] | 90 | 90 | 90 | 100 | 100 | 50 | 100 | 90 | 90 | 90 | 80 | 70 | 70 | 90 | 70 | 100 | 60 | 70 | 75 | 60 |
| CC(C)OC(=O)C1C=CC(NC(=O)C2(C)CN(c3cc(F)cc(F)c3)C(=O)O2)C1 (stereo not shown) [Compound 52] | 100 | 90 | 100 | 100 | 100 | 90 | 100 | 100 | 90 | 90 | 80 | 100 | 70 | 90 | 70 | 60 | 75 | 60 | 65 | 90 |
